Biological target: T1, human MIF (Homo sapiens, UniProt P14174)
T1 sequence (P14174 2-115 limits assumed): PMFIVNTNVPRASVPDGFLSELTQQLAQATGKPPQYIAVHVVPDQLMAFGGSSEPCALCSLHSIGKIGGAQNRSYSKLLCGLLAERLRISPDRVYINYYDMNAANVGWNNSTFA
Assay: Depletion of injected recombinant human MIF from serum in mice
Type: in vivo
Parameters: injected into mice
Details: control molecules; FIG. 136
Protocol: In vivo human MIF depletion experiments were undertaken to determine whether MIF-GN3 can mediate the depletion of injected recombinant human MIF from serum in mice. Mice were injected with five μg of the human MIF protein. In this experiment, one group of mice was also injected with a single 10 mpk dose of MIF-GN3 along with human MIF protein. It was observed that after four hours, the average level of human MIF in serum in the PBS-treated mice was 1.76 ng/mL (FIG. 134). In mice treated with 10 mpk MIF-GN3, however, the concentration of human MIF in serum was 0.68 ng/mL. One day after the initial injection, human MIF levels had reached background levels for both conditions. […] It was hypothesized that, due to the short half-life of human MIF in serum, investigating human MIF levels at earlier time points may be more informative.
Next, an experiment was performed to determine whether MIF-GN3 could enhance MIF clearance at time points earlier than four hours. Mice were coinjected with recombinant human MIF and 10 mpk MIF-GN3 via either i.p. or i.v. routes. For the PBS control arms, human MIF was injected with PBS. It was observed that in the absence of MIF-GN3, there was a spike in huMIF levels in circulation after 30 minutes (FIG. 135). In the presence of MIF-GN3, however, levels of MIF protein remained low at 30 minutes and no spike in its concentration was observed. By two hours, the levels of human MIF in circulation decreased to background levels. […] In a further experiment, whether an inhibitor of the MIF protein (3w) is able to mediate the protein's depletion from serum was determined. A bifunctional molecule that mediates the depletion of α-DNP antibody from serum was also assayed as a negative control. Neither of these molecules was expected to mediate the formation of a ternary complex between human MIF protein and ASGPR.
In order to confirm that mice injected with one or ten mpk MIF-GN3 had received the injection, and that the observed stability of MIF concentrations in MIF-GN3 treated mice was not the result of injection error, 200 μg of α-DNP antibody was coinjected with the MIF protein in this experiment. […] An investigation of the ability of MIF-GN3 to mediate the depletion of endogenous mouse MIF in vivo was next undertaken. Mice were treated with either PBS or 10 mpk of MIF-GN3. […] One possible explanation for this finding is that MIF protein may be synthesized rapidly, and any increase in degradation mediated by MIF-GN3 may not be of a large enough magnitude to impact the protein's level in serum.

CC(=O)NC1C(OCCOCCOCCNC(=O)CCOCC(COCCC(=O)NCCOCCOCCOC2OC(CO)C(O)C(O)C2NC(C)=O)(COCCC(=O)NCCOCCOCCOC2OC(CO)C(O)C(O)C2NC(C)=O)NC(=O)CNC(=O)COCCOCCOCCNc2ccc([N+](=O)[O-])cc2[N+](=O)[O-])OC(CO)C(O)C1O (stereo not shown) [DNP-GN3]
human MIF concentration in serum compared to the PBS control: no significant decreases

Source: US20230087994A1, “TARGETED BIFUNCTIONAL DEGRADERS” (YALE UNIVERSITY, priority 2019, published 2023)
